Experimental data as given in ChEMBL document CHEMBL1148851, “Chemoenzymatic synthesis and in vitro studies on the hydrolysis of antimicrobial monoglycosyl diglycerides by pancreatic lipase” (2007).
In brackets after ≈: the same amount, converted by molar mass.

Columns and labels:
Assay type in all cases: functional
[1] = tested on: Staphylococcus aureus; test: Antibacterial activity against Staphylococcus aureus SA85 isolate
[2] = tested on: Staphylococcus aureus; test: Antibacterial activity against Staphylococcus aureus ATCC 25923
[3] = tested on: Pseudomonas aeruginosa; test: Antibacterial activity against Pseudomonas aeruginosa ATCC 27753
[4] = tested on: Enterococcus faecalis; test: Antibacterial activity against Enterococcus faecalis ATCC 29212
[5] = tested on: Candida albicans; test: Antifungal activity against Candida albicans by dilution method
[6] = tested on: Staphylococcus aureus; test: Antibacterial activity against Staphylococcus aureus SA52 isolate
[7] = tested on: Mycobacterium tuberculosis; test: Antibacterial activity against Mycobacterium tuberculosis H160 by dilution method
[8] = tested on: Mycobacterium tuberculosis; test: Antibacterial activity against Mycobacterium tuberculosis H190 by dilution method
[9] = tested on: Mycobacterium tuberculosis; test: Antibacterial activity against Mycobacterium tuberculosis H37Rv by dilution method
[10] = tested on: Staphylococcus aureus; test: Antibacterial activity against Staphylococcus aureus SA87 isolate
[11] = tested on: Kluyveromyces marxianus; test: Antifungal activity against Candida pseudotropicalis by dilution method
[12] = tested on: Escherichia coli; test: Antibacterial activity against Escherichia coli ATCC 25922
[13] = tested on: Staphylococcus aureus; test: Antibacterial activity against Staphylococcus aureus ATCC 105487
[14] = tested on: Bacillus subtilis; test: Antibacterial activity against Bacillus subtilis ATCC 6633
[15] = Mycobacterium tuberculosis, H160, read-out: MIC
[16] = Mycobacterium tuberculosis, H37Rv, read-out: MIC
[17] = Staphylococcus aureus, read-out: MIC
[18] = Bacillus subtilis, ATCC 6633, read-out: MIC

Row | SMILES | MIC [1] | MIC [2] | MIC [3] | MIC [4] | MIC [5] | MIC [6] | MIC [7, 15] | MIC [8] | MIC [9, 16] | MIC [10, 17] | MIC [11] | MIC [12] | MIC [13] | MIC [14, 18] | MIC [7] | MIC [9] | MIC [10] | MIC [14]
1 | CCCCCCCC/C=C\CCCCCCCC(=O)OCC(CO[C@@H]1O[C@H](CO)[C@H](O)[C@H](O)[C@H]1O)OC(=O)CCCCCCC/C=C\CCCCCCCC (stereo partly specified) | > 128 µg/mL | > 128 µg/mL | > 128 µg/mL | > 128 µg/mL | > 128 µg/mL | > 128 µg/mL | > 128 µg/mL | > 128 µg/mL | > 128 µg/mL | > 128 µg/mL | > 128 µg/mL | > 128 µg/mL | > 128 µg/mL | > 128 µg/mL | – | – | – | –
2 | CC/C=C\C/C=C\C/C=C\CCCCCCCC(=O)OC(COC(=O)CCCCCCC)CO[C@@H]1O[C@H](CO)[C@H](O)[C@H](O)[C@H]1O (stereo partly specified) | > 128 µg/mL | > 128 µg/mL | > 128 µg/mL | > 128 µg/mL | > 128 µg/mL | > 128 µg/mL | 128 µg/mL (≈ 200 µM) | 128 µg/mL (≈ 200 µM) | 128 µg/mL (≈ 200 µM) | 64 µg/mL (≈ 99.9 µM) | > 128 µg/mL | > 128 µg/mL | > 128 µg/mL | 128 µg/mL (≈ 200 µM) | – | – | – | –
3 | CCCCC/C=C\C/C=C\CCCCCCCC(=O)OC(COC(=O)CCCCCCCCC)CO[C@@H]1O[C@H](CO)[C@H](O)[C@H](O)[C@H]1O (stereo partly specified) | 64 µg/mL (≈ 95.4 µM) | > 128 µg/mL | > 128 µg/mL | 128 µg/mL (≈ 191 µM) | > 128 µg/mL | > 128 µg/mL | > 128 µg/mL | > 128 µg/mL | > 128 µg/mL | 64 µg/mL (≈ 95.4 µM) | > 128 µg/mL | > 128 µg/mL | 64 µg/mL (≈ 95.4 µM) | 128 µg/mL (≈ 191 µM) | – | – | – | –
4 | CCCCC/C=C\C/C=C\CCCCCCCC(=O)OCC(CO[C@@H]1O[C@H](CO)[C@@H](O)[C@H](O)[C@H]1O)OC(=O)CCCCCCC/C=C\C/C=C\CCCCC (stereo in doubt; 9q) | > 128 µg/mL | > 128 µg/mL | > 128 µg/mL | > 128 µg/mL | > 128 µg/mL | > 128 µg/mL | – | – | – | 128 µg/mL (≈ 164 µM) | > 128 µg/mL | > 128 µg/mL | > 128 µg/mL | 128 µg/mL (≈ 164 µM) | 128 µg/mL (≈ 164 µM) | 128 µg/mL (≈ 164 µM) | – | –
5 | CCCCCCCC/C=C\CCCCCCCC(=O)OCC(CO[C@@H]1O[C@H](CO)[C@@H](O)[C@H](O)[C@H]1O)OC(=O)CCCCCCC/C=C\CCCCCCCC (stereo partly specified) | > 128 µg/mL | > 128 µg/mL | > 128 µg/mL | > 128 µg/mL | > 128 µg/mL | > 128 µg/mL | > 128 µg/mL | > 128 µg/mL | > 128 µg/mL | > 128 µg/mL | > 128 µg/mL | > 128 µg/mL | > 128 µg/mL | > 128 µg/mL | – | – | – | –
6 | CC/C=C\C/C=C\C/C=C\CCCCCCCC(=O)OC(COC(=O)CCCCCCCCC)CO[C@@H]1O[C@H](CO)[C@@H](O)[C@H](O)[C@H]1O (stereo partly specified) | 64 µg/mL (≈ 95.7 µM) | > 128 µg/mL | > 128 µg/mL | > 128 µg/mL | > 128 µg/mL | > 128 µg/mL | > 128 µg/mL | > 128 µg/mL | > 128 µg/mL | 32 µg/mL (≈ 47.8 µM) | > 128 µg/mL | > 128 µg/mL | > 128 µg/mL | > 128 µg/mL | – | – | – | –
7 | CCCCC/C=C\C/C=C\CCCCCCCC(=O)OCC(CO[C@@H]1O[C@H](CO)[C@@H](O)[C@H](O)[C@H]1O)OC(=O)CCCCCCC/C=C\C/C=C\CCCCC (stereo in doubt; 9g) | – | – | – | – | – | – | 64 µg/mL (≈ 82.1 µM) | 128 µg/mL (≈ 164 µM) | 64 µg/mL (≈ 82.1 µM) | – | – | – | – | – | – | – | 64 µg/mL (≈ 82.1 µM) | 128 µg/mL (≈ 164 µM)
8 | CC/C=C\C/C=C\C/C=C\CCCCCCCC(=O)OC(COC(=O)CCCCCCC)CO[C@@H]1O[C@H](CO)[C@@H](O)[C@H](O)[C@H]1O (stereo partly specified) | > 128 µg/mL | > 128 µg/mL | > 128 µg/mL | > 128 µg/mL | > 128 µg/mL | > 128 µg/mL | 128 µg/mL (≈ 200 µM) | 64 µg/mL (≈ 99.9 µM) | 64 µg/mL (≈ 99.9 µM) | 64 µg/mL (≈ 99.9 µM) | > 128 µg/mL | > 128 µg/mL | > 128 µg/mL | 128 µg/mL (≈ 200 µM) | – | – | – | –
9 | CC/C=C\C/C=C\C/C=C\CCCCCCCC(=O)OC[C@H](CO[C@@H]1O[C@H](CO)C(O)[C@H](O)[C@H]1O)OC(=O)CCCCCCC/C=C\C/C=C\C/C=C\CC (single isomer, unassigned) | > 128 µg/mL | 128 µg/mL (≈ 165 µM) | > 128 µg/mL | > 128 µg/mL | > 128 µg/mL | > 128 µg/mL | > 128 µg/mL | > 128 µg/mL | > 128 µg/mL | > 128 µg/mL | > 128 µg/mL | > 128 µg/mL | > 128 µg/mL | > 128 µg/mL | – | – | – | –
10 | CCCCCCCCCCCCCC(=O)OCC(CO[C@@H]1O[C@H](CO)[C@H](O)[C@H](O)[C@H]1O)OC(=O)CCCCCCCCCCCCC (stereo partly specified) | > 128 µg/mL | > 128 µg/mL | > 128 µg/mL | > 128 µg/mL | > 128 µg/mL | > 128 µg/mL | > 128 µg/mL | > 128 µg/mL | > 128 µg/mL | > 128 µg/mL | > 128 µg/mL | > 128 µg/mL | > 128 µg/mL | > 128 µg/mL | – | – | – | –
11 | CCCCCCCC/C=C\CCCCCCCC(=O)OC(COC(=O)CCCCCCCCC)CO[C@@H]1O[C@H](CO)[C@@H](O)[C@H](O)[C@H]1O (stereo partly specified) | 128 µg/mL (≈ 190 µM) | 8 µg/mL (≈ 11.9 µM) | > 128 µg/mL | > 128 µg/mL | > 128 µg/mL | > 128 µg/mL | > 128 µg/mL | > 128 µg/mL | > 128 µg/mL | > 128 µg/mL | > 128 µg/mL | > 128 µg/mL | > 128 µg/mL | 32 µg/mL (≈ 47.6 µM) | – | – | – | –
12 | CCCCC/C=C\C/C=C\CCCCCCCC(=O)OC(COC(=O)CCCCCCC)CO[C@@H]1O[C@H](CO)[C@H](O)[C@H](O)[C@H]1O (stereo partly specified) | > 128 µg/mL | > 128 µg/mL | > 128 µg/mL | > 128 µg/mL | > 128 µg/mL | > 128 µg/mL | 64 µg/mL (≈ 99.6 µM) | 128 µg/mL (≈ 199 µM) | 64 µg/mL (≈ 99.6 µM) | 128 µg/mL (≈ 199 µM) | > 128 µg/mL | > 128 µg/mL | > 128 µg/mL | 128 µg/mL (≈ 199 µM) | – | – | – | –
13 | CCCCCCCCCCCC(=O)OCC(CO[C@@H]1O[C@H](CO)[C@H](O)[C@H](O)[C@H]1O)OC(=O)CCCCCCCCCCC (stereo partly specified) | > 128 µg/mL | > 128 µg/mL | > 128 µg/mL | > 128 µg/mL | > 128 µg/mL | > 128 µg/mL | > 128 µg/mL | > 128 µg/mL | > 128 µg/mL | > 128 µg/mL | > 128 µg/mL | > 128 µg/mL | > 128 µg/mL | > 128 µg/mL | – | – | – | –
14 | CCCCCCCCCCCCCCCCCC(=O)OCC(CO[C@@H]1O[C@H](CO)[C@H](O)[C@H](O)[C@H]1O)OC(=O)CCCCCCCCCCCCCCCCC (stereo partly specified) | > 128 µg/mL | > 128 µg/mL | > 128 µg/mL | > 128 µg/mL | > 128 µg/mL | > 128 µg/mL | > 128 µg/mL | > 128 µg/mL | > 128 µg/mL | > 128 µg/mL | > 128 µg/mL | > 128 µg/mL | > 128 µg/mL | > 128 µg/mL | – | – | – | –
